Measurements as given in patent publication US8686184B2, “Neprilysin inhibitors” (Theravance, Inc., priority 2011, dated 2014).

The molecules below were run against T1, human neprilysin (EC 3.4.24.11; NEP) (Homo sapiens, UniProt P08473) (assay: In vitro enzyme inhibition assay at human NEP (fluorogenic peptide substrate)). Conditions: recombinant human NEP; 37° C.; substrate Mca-D-Arg-Arg-Leu-Dap-(Dnp)-OH 10 μM; values given as ranges; read-out: pKi values at human NEP (converted).
T1 construct: purchased R&D Systems, Minneapolis, Minn; 1182-ZN
Assay type: biochemical
Summary of the method: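 Recombinant human NEP pre-incubated 30 min at 37 °C with compound (10 μM to 20 pM), then cleaved 20 min at 37 °C with 10 μM Mca-D-Arg-Arg-Leu-Dap-(Dnp)-OH in HEPES pH 7.5, NaCl, Tween-20, 10 μM ZnSO4. Stopped with acetic acid; fluorescence Ex 320/Em 405 nm; apparent Ki from v=v0/[1+(I/K′)] fit, reported as pKi.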

T1 sequence (P08473 52-750 limits assumed): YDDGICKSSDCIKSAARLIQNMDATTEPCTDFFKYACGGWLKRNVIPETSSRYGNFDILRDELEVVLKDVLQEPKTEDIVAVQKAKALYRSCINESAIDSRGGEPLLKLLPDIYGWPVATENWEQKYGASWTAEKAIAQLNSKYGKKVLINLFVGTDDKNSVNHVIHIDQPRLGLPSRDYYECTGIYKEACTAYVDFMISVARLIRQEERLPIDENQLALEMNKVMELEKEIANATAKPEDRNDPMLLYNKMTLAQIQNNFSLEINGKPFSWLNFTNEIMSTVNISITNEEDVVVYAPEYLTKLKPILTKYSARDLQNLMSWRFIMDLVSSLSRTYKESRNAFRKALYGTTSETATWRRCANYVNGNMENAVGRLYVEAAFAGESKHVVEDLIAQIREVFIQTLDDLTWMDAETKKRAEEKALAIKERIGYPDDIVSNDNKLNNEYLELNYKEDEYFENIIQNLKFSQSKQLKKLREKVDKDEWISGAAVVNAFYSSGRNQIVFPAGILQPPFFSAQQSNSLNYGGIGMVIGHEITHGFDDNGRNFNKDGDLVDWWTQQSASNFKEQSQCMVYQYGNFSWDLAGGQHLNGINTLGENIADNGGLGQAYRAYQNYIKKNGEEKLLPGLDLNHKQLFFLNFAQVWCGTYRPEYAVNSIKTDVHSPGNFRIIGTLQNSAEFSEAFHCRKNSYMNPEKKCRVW

| SMILES | Ki |
| --- | --- |
| CCCCNC(=O)Nc1cc(C(=O)N[C@H](Cc2ccccc2)[C@@H](O)C(=O)O)ccc1CC [Example 10-73, (2R,3R)-3-[3-(3-Butyl-ureido)-4-ethyl-benzoylamino]-2-hydroxy-4-phenyl-butyric acid] | 12.6 to 100 nM |
| CCc1ccc(C(=O)N[C@H](Cc2ccccc2)[C@@H](O)C(=O)O)cc1NC(=O)NC(CC(C)C)C(=O)O (stereo partly drawn) [Example 10-74, 2-{3-[5-((1R,2R)-1-Benzyl-2-carboxy-2-hydroxy-ethylcarbamoyl)-2-ethyl-phenyl]-ureido}-4-methyl-pentanoic acid] | 12.6 to 100 nM |
| CCc1ccc(C(=O)N[C@H](Cc2ccccc2)[C@@H](O)C(=O)O)cc1NC(=O)Nc1ccccc1 [Example 10-75, (2R,3R)-3-[4-Ethyl-3-(3-phenyl-ureido)-benzoylamino]-2-hydroxy-4-phenyl-butyric acid] | 12.6 to 100 nM |
| CCc1ccc(C(=O)N[C@H](Cc2ccccc2)[C@@H](O)C(=O)O)cc1NC(=O)Nc1sccc1C(=O)O [Example 10-76, 2-{3-[5-((1R,2R)-1-Benzyl-2-carboxy-2-hydroxy-ethylcarbamoyl)-2-ethyl-phenyl]-ureido}-thiophene-3-carb oxylic acid] | 12.6 to 100 nM |
| CCc1ccc(C(=O)N[C@H](Cc2ccccc2)[C@@H](O)C(=O)O)cc1NC(=O)Nc1sc(C)cc1C(=O)O [Example 10-77, 2-{3-[5-((1R,2R)-1-Benzyl-2-carboxy-2-hydroxy-ethylcarbamoyl)-2-ethyl-phenyl]-ureido}-5-methyl-thiophene-3-carboxylic acid] | ≤ 1 nM |
| CCc1ccc(C(=O)N[C@H](Cc2ccccc2)[C@@H](O)C(=O)O)cc1NC(=O)Nc1ccsc1C(=O)O [Example 10-78, 3-{3-[5-((1R,2R)-1-Benzyl-2-carboxy-2-hydroxy-ethylcarbamoyl)-2-ethyl-phenyl]-ureido}-thiophene-2-carboxylic acid] | 12.6 to 100 nM |
| CCCCOC(=O)Nc1cc(C(=O)N[C@H](Cc2ccccc2)[C@@H](O)C(=O)O)ccc1CC [Example 10-79, (2R,3R)-3-(3-Butoxycarbonylamino-4-ethyl-benzoylamino)-2-hydroxy-4-phenyl-butyric acid] | 12.6 to 100 nM |
| CC(C)c1ccc(C(=O)N[C@H](Cc2ccccc2)[C@@H](O)C(=O)O)cc1-c1ccncc1 [Example 10-80, (2R,3R)-2-Hydroxy-3-(4-isopropyl-3-pyridin-4-yl-benzoylamino)-4-phenyl-butyric acid] | 12.6 to 100 nM |
| CC(C)c1ccc(C(=O)N[C@H](Cc2ccccc2)[C@@H](O)C(=O)O)cc1-c1cccc(C(=O)N(C)C)c1 [Example 10-81, (2R,3R)-3-[(3′-Dimethylcarbamoyl-6-isopropyl-biphenyl-3-carbonyl)-amino]-2-hydroxy-4-phenyl-butyric acid] | 12.6 to 100 nM |
| Cc1cc(C(=O)N[C@H](Cc2ccccc2)[C@@H](O)C(=O)O)cc(C)c1F [Example 10-82, (2R,3R)-3-(4-Fluoro-3,5-dimethyl-benzoylamino)-2-hydroxy-4-phenyl-butyric acid] | 12.6 to 100 nM |
| O=C(O)C[C@@H](Cc1ccccc1Cl)NC(=O)CCCc1ccccc1C(=O)O [Example 11, 2-{3-[(R)-1-Carboxymethyl-2-(2-chlorophenyl)-ethylcarbamoyl]-propyl}-benzoic Acid] | 1.26 to 10 nM |
| Cc1ccc(C(=O)N[C@@H](CC(=O)O)Cc2ccccc2Cl)cc1-c1ccccc1C(=O)O [Example 12, 5′-[(R)-2-Carboxy-1-(2-chloro-benzyl)-ethylcarbamoyl]-2′-methyl-biphenyl-2-carboxylic Acid] | 1.26 to 10 nM |
| Cc1ccc(C(=O)N[C@@H](CC(=O)O)Cc2ccccc2C(F)(F)F)cc1-c1ccccc1C(=O)O [Example 14, 5′-[(R)-2-Carboxy-1-(2-trifluoromethyl-benzyl)-ethylcarbamoyl]-2′-methyl-biphenyl-2-carboxylic Acid] | 1.26 to 10 nM |

Further lines, results first:

| Ki | SMILES |
| --- | --- |
| 12.6 to 100 nM | O=C(O)Cc1ccccc1-c1cccc(C(=O)N[C@@H](CC(=O)O)Cc2ccccc2Cl)c1 [Example 13-1, (R)-3-[(2′-Carboxymethyl-biphenyl-3-carbonyl)-amino]-4-(2-chloro-phenyl)-butyric acid] |
| 1.26 to 10 nM | O=C(O)C[C@@H](Cc1ccccc1Cl)NC(=O)c1cccc(-c2ccccc2C(=O)O)c1 [Example 13-2, 3′-[(R)-2-Carboxy-1-(2-chloro-benzyl)-ethylcarbamoyl]-biphenyl-2-carboxylic acid] |
| 1.26 to 10 nM | Cc1ccc(C(=O)N[C@@H](CC(=O)O)Cc2ccccc2Cl)cc1-c1ccccc1CC(=O)O [Example 13-3, (R)-3-[(2′-Carboxymethyl-6-methyl-biphenyl-3-carbonyl)-amino]-4-(2-chloro-phenyl)-butyric acid] |
| 12.6 to 100 nM | O=C(O)Cc1ccccc1-c1ccc(C(=O)N[C@@H](CC(=O)O)Cc2ccccc2Cl)cc1 [Example 13-4, (R)-3-[(2′-Carboxymethyl-biphenyl-4-carbonyl)-amino]-4-(2-chloro-phenyl)-butyric acid] |
| 12.6 to 100 nM | CC1=NN(c2ccc(C(=O)N[C@@H](CC(=O)O)Cc3ccccc3Cl)cc2Cl)C(=O)C1 [Example 13-5, (R)-3-[3-Chloro-4-(3-methyl-5-oxo-4,5-dihydro-pyrazol-1-yl)-benzoylamino]-4-(2-chloro-phenyl)-butyric acid] |
| 12.6 to 100 nM | CC1=NN(c2ccc(C(=O)N[C@@H](CC(=O)O)Cc3ccccc3Cl)cc2)C(=O)C1 [Example 13-6, (R)-4-(2-Chlorophenyl)-3-[4-(3-methyl-5-oxo-4,5-dihydro-pyrazol-1-yl)-benzoylamino]-butyric acid] |
| 12.6 to 100 nM | CC1=NN(c2cccc(C(=O)N[C@@H](CC(=O)O)Cc3ccccc3Cl)c2)C(=O)C1 [Example 13-8, (R)-4-(2-Chlorophenyl)-3-[3-(3-methyl-5-oxo-4,5-dihydro-pyrazol-1-yl)-benzoylamino]-butyric acid] |
| 12.6 to 100 nM | CCCC1=NN(c2cccc(C(=O)N[C@@H](CC(=O)O)Cc3ccccc3Cl)c2)C(=O)C1 [Example 13-9, (R)-4-(2-Chlorophenyl)-3-[3-(5-oxo-3-propyl-4,5-dihydro-pyrazol-1-yl)-benzoylamino]-butyric acid] |
| 12.6 to 100 nM | CCc1ccc(C(=O)N[C@@H](CC(=O)O)Cc2ccccc2Cl)cc1-n1c(=O)[nH]c2sc(C)cc2c1=O [Example 13-10, (R)-4-(2-Chlorophenyl)-3-[4-ethyl-3-(6-methyl-2,4-dioxo-1,4-dihydro-2H-thieno[2,3-d]pyrimidin-3-yl)-benzoylamino]-butyric acid] |
